In US4751305A, “2-heterocyclobenzo[B][1,6]naphthyridines as inhibitors of interleukin” (American Home Products Corporation, priority 1987, dated 1988) one finds inhibition data, which are given here for 4 molecules.

This test has as its system IL 1-induced release of neutral protease from rabbit articular chondrocytes. The test can be described thus: inhibition of the IL 1-induced release of neutral protease from rabbit articular chondrocytes (azocoll neutral protease assay). It is filed as cell-based. Particulars: Oryctolagus cuniculus, Chondrocyte, compound 10 min before purified human IL 1, 24 h, read-out: % Inhibition (I.S.D.). The method, then:
The ability of the compounds of the inventions to inhibit interleukin 1 is measured by the ability of the test compounds to inhibit the IL 1-induced release of neutral protease from rabbit articular chondrocytes.
This assay is carried out as follows:
Isolation of rabbit chondrocytes:
Male New Zealand White rabbits are anesthetized with 50 mg/kg of ketamine (i.m.) and killed by an intracardiac injection of 3 mls. of Nembutal. The knee joints of both legs are resected and the articular surfaces are exposed. Cartilage slices are obtained using a scalpel and are placed in a tissue culture dish (100 mm diameter) containing 10 mls of Hank's balanced salt solution (HBSS). The chondrocytes within the cartilage slices are then liberated by a series of enzyme digestions. The slices are incubated for 10 min. at 37° C. in 0.05% hyaluronidase (Sigma H-3884), rinsed with HBSS and incubated with 0.2% trypsin (Sigma T-2395) for 10 min. at 37° C. The slices are rinsed again and incubated for 10 mins. at 37° C. with 1.2% collagenase (Sigma C-5138). The slices are then rinsed again with HBSS and resuspended in 10 ml of Ham's F-12 medium containing 10% fetal bovine calf serum (FCS) and 0.2% collagenase and incubated overnight at 37° C. in a 5% CO2 incubator. The next day, the medium containing the digested cartilage fragments and liberated chondrocytes is transferred to a 15 ml centrifuge tube and the cells are collected by centrifugation and washed twice and resuspended in Ham's F-12 medium. The cells are then plated into 24-well tissue culture plates (2×10^5 cells/well) and incubated at 37° C. until confluent (usually 4-6 days).
Stimulation of chondrocytes and drug treatment:
The confluent chondrocytes are rinsed twice with serum-free Ham's F-12 medium and 1 ml is added to each well. Fifty $1 of purified human IL 1(100 Units/ml; Genzyme Corporation, Boston, MA) is then added to stimulate these cells to secrete neutral protease. To measure drug effects, the cells are treated with test compound 10 min. prior to addition of IL 1. The standard screening dose is 10 $M. Twenty-four hours after IL 1 stimulation, supernatant fluids are collected and assayed for neutral protease activity.
The neutral protease activity of chondrocyte supernatant fluids is determined by their ability to degrade an insoluble protease substrate, azocoll (Sigma). Supernatants are treated for 10 min. at room temperature with 350 $M p-aminophenyl-murcuric acetate to activate the latent enzyme. Three hundred $1 of supernatant is then mixed with 500 $1 of a 20 mg/ml suspension of azocoll and incubated at 37° C. for 18-24 hrs. with gentle rocking. The mixtures are centrifuged and the amount of substrate hydrolyzed is determined by measuring the absorbance of the supernatant at 520 nm.
Drug effects are calculated as the % change in enzyme activity (absorbance)by supernatants from drug-treated chondrocytes relative to enzyme activity of supernatants from vehicle-treated chondrocytes as follows: [formula]

By inhibition is commonly meant the percentage by which the read-out fell short of the control. For the molecule `Clc1ccc2c(Cl)c3c(nc2c1)CCN(c1ncccn1)C3` [Example 1, 7,10-Dichloro-1,2,3,4-tetrahydro-2-(2-pyrimidinyl)benzo[b][1,6]naphthyridine], the inhibition at 10 µM is 34 ± 8%.
Regarding `Clc1ccc2c(Cl)c3c(nc2c1)CCN(c1ccc2ccccc2n1)C3` [Example 3, 7,10-Dichloro-1,2,3,4-tetrahydro-2-(2-quinolinyl)benzo[b][1,6]naphthyridine], the inhibition at 10 µM is not above 20%.
For `N#Cc1ccc(N2CCc3nc4cc(Cl)ccc4c(Cl)c3C2)nc1` [Example 4, 6-(7,10-Dichloro-3,4-dihydrobenzo[b][1,6]naphthyridin-2(1H)-yl)-3-pyridine-carbonitrile, hemihydrate], the inhibition at 10 µM was 94%. Further, for the setting “dose 5 μM”, the inhibition at 5 µM was 83%.
As for `Clc1ccc2c(NNc3ccccc3)c3c(nc2c1)CCN(c1cnccn1)C3` [Example 5, 7-Chloro-1,2,3,4-tetrahydro-10-(2-phenylhydrazino)-2-(2-pyrazinyl)benzo[b][1,6]naphthyridine], the inhibition at 10 µM is 85 ± 5%.
